Source: patent US20250032580A1, “USE OF ADNF POLYPEPTIDES IN THERAPY” (RAMOT AT TEL-AVIV UNIVERSITY LTD., priority 2021, published 2025)

Columns and labels:
[1] = system: Tyr mice; assay: Fecal microbiota real-time PCR loads; assay type: in vivo, mouse; design: key to NAP efficacy: microbiota: corrections by NAP treatment (+)
Experimental: Microbiome—Fecal samples were collected from 12.2±0.19-week-old mice. Samples were prepared and analyzed as previously described (57). Microbiome data was analyzed after applying the logarithmic transformation.

[2] = system: Tyr mice; assay: AT8 (hyperphosphorylated Tau) immunohistochemistry; assay type: in vivo, mouse; design: key to NAP efficacy: tauopathy, hyperphosphorylated Tau deposits: corrections by NAP treatment (+)
Experimental: AT8 Immunohistochemistry—experiment was performed as previously described (100). Mice were treated for 6 weeks with daily intranasal DD/NAP and were euthanized at 10.21±0.05 weeks of age.

[3] = system: BTBR mouse; assay: Social recognition test; assay type: in vivo; conditions: BTBR idiopathic autism mouse, FIG. 14
[4] = system: Tyr-GFP mice; assay: Dendritic spine quantitation; assay type: in vivo, mouse; design: key to NAP efficacy: synaptic structural alterations: corrections by NAP treatment (+)
Experimental: Spine quantitation—For determination of dendritic spine morphology, the Tyr-GFP mouse model was used and generated as described(12). 1.5-2-month-old Tyr-GFP-mice were treated for 9 consecutive days with either intraperitoneal NAP injection (0.4 μg/0.1 ml saline) or with 0.1 ml saline. On day 9, mice were perfused, and brains were subjected to immunohistochemistry and imaging (12).

[5] = system: differentiated N1E-115 cells; assay: Live imaging of EB3 comet-like structures (MT dynamics); assay type: cell-based, mouse
Experimental: Cell culture—Mouse neuroblastoma NIE-115 cells were maintained in Dulbecco's modified Eagle's medium, 10% fetal bovine serum, 2 mM glutamine and 100 U ml—1 penicillin, […] ml—1 streptomycin (Biological Industries, Beit Haemek, Israel). The cells were incubated in 95% air/5% CO2 in a humidified incubator at 37° C.
Cell differentiation and co-transfection of overexpression plasmids—Cultured NIE-115 cells were plated on 35 mm dishes (81156, 60μ-Dish, Ibidi, Martinsried, Germany) at a concentration of 1.25×10^4 cells per dish and then were differentiated with reduced fetal bovine serum (2%) and DMSO (1.25%) containing medium for 5 days before transfection. 48 hrs before experiments N1E-115 cells were co-transfected with 1 μg EB3-RFP or mCherry-Tau (3R) plasmid with or without 2 μg of plasmids, coding to GFP conjugated to full-length human ADNP, or ADNP carried mutations. 1:3 ratios between total amount of transfected DNA and transfection reagent were used according to manufacture guidance (Lipofectamine2000, Thermo Fisher Scientific, Waltham, MA, USA) in all subsequent experiments.
Live Imaging—48 hrs after transfection, differentiated NIE-115 cells (expressing EB3-RFP with or without GFP-conjugated to full-length ADNP or mutated ADNP) were incubated at 37° C. with a 5% CO2/95% air mixture in a thermostatic chamber placed on the stage of a Leica TCS SP5 confocal microscope (objective 100× (PL Apo) oil immersion, NA 1.4). Time-lapse images were automatically captured 3 sec during 1 min, using the Leica LAS AF software. After imaging all samples were also treated with NAP (SEQ ID NO: 2) or SKIP (SEQ ID NO: 21) in final concentrations of 10^−12 M, and after 4 hrs time-lapse imaging was done again under the same conditions. Data was collected and analyzed by Imaris software.
To evaluate the effect of ADNP truncated proteins on MT dynamics time-lapse imaging of EB3 comet-like structures formed by RFP-tagged EB3 proteins that bind to MT plus-ends was performed. Two parameters of EB3 activity were used to assess MT dynamics—track length and track speed of EB3 comets, which reflect the length of freshly growing MTs and the speed of MT assembly, respectively. Furthermore, the present inventors aimed to determine whether NAP (10^−12 M for 4 hrs) could prevent the deleterious effect of ADNP mutations.

[6] = Tyr mouse, first symbol of cell
[7] = male Tyr mice, 6 weeks daily intranasal NAP
[8] = males and WT females, data not shown

Compound: CC[C@H](C)[C@H](NC(=O)[C@H](CO)NC(=O)[C@@H](NC(=O)[C@@H]1CCCN1C(=O)[C@H](C)NC(=O)[C@@H](N)CC(N)=O)C(C)C)C(=O)N1CCC[C@H]1C(=O)N[C@@H](CCC(N)=O)C(=O)O [NAP, NAPVSIPQ]
- NAP efficacy: microbiota [1, 6]: +/+
- EubV3, BIF, Lacto, Entero loads ([1]; WT mice): no effect on WT mice
- Clostridium coccoides group (gCcoc) and Mouse intestinal Bacteroides (MIB) loads ([1]; WT mice, data not shown): other varying effects
- Bifidobacterium genus (BIF) load ([1]; female Tyr mice): NAP correction
- Total eubacterial load (EubV3) ([1]; male Tyr mice): corrected with NAP treatment
- Combined AT8- and AT180-positive cells ([2]; Tyr mice, both sexes, data not shown): correction by NAP in both sexes
- NAP efficacy: tauopathy, hyperphosphorylated Tau deposits [2, 6]: +/+
- AT8 staining ([2]; WT males, data not shown): did not display a NAP effect
- Decrease of AT8 positive cells in the hippocampus [2, 7]: ~2.57 fold
- Reversal of AT8 staining in the visual cortex [2, 7]: ~2 fold
- Effects on social recognition (preference of the mouse rather than the cup) [3]: also observed
- NAP efficacy: synaptic structural alterations [4, 6]: +/+
- Mushroom shaped spine density, motor cortex ([4]; female Tyr mice): significantly affecting
- PSD95 volume in the hippocampus ([4]; female Tyr mice): complete resolution
- Increase in motor cortex L5 layer spine density ([4]; female Tyr mice, i.p. NAP, 9 days): ~17%
- Hippocampal total spines and subtypes ([4]; females and WT males, data not shown): no genotype or treatment changes in females or treatment effect on WT males
- Increase in CA1 hippocampal dendritic spine density ([4]; male Tyr mice, i.p. NAP 0.4 μg/0.1 ml saline, 9 days): ~23%
- Motor cortex spine density [4, 8]: No genotype or treatment changes were observed in males and no treatment effect was found on WT females
- Motor cortex spine subtypes [4, 8]: No NAP effect
- Difference between effects of NAP and SKIP on EB3 track length and speed ([5]; 10^−12 M, 4 hrs): no significant differences
- Speed and track length of EB3 comets ([5]; cells expressing ADNP p.Glu830synfs*83, 10^−12 M, 4 hrs): significantly augmented
- EB3 comet speed ([5]; cells expressing ADNP p.Lys408Valfs*31, 10^−12 M, 4 hrs): significantly augmented
- EB3 activity (track length and comet speed) ([5]; cells expressing ADNP p.Lys408Valfs*31 SDM, 10^−12 M, 4 hrs): recovered EB3 activity to the control level
- Speed and track length of EB3 comets ([5]; cells expressing ADNP p.Ser404*, 10^−12 M, 4 hrs): significantly augmented
- EB3 comet track length and speed ([5]; cells overexpressing full-length ADNP, 10^−12 M, 4 hrs): did not further influence
- EB3 track length and speed compared to non-treated control ([5]; no ADNP plasmid, 10^−12 M, 4 hrs): increased EB3 track length and speed
- MT activities in the face of all ADNP mutations ([5]; summary of results): normalized MT activities
